SMILES strings stand for the structures. Where two headings read alike, the source gives them in different places.

Experimental findings from patent publication US9227971B2, “Pyrazolo[1,5-a]pyrimidine compounds as mTOR inhibitors” (Merck Sharp & Dohme Corp., priority 2010, dated 2016) are described below.

The test system of assay [1] is phosphorylated AKT Ser473 (pAKT S473), mTORC2 activity, PC3 cells. Nature of the assay: mTOR target engagement assay, immunofluorescent cell-based, pAKT S473 readout (mTORC2 activity). To be noted: Homo sapiens. In short, it runs like this:
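After blocking, cells were stained overnight at 4 °C with anti-pAKT S473 antibody, then a fluorescent secondary; inhibition was read as reduced fluorescence intensity.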

In assay [2] the test system is phosphorylated 4E-BP1 Thr37/46 (p4E-BP1 Thr37/46), mTORC1 activity, PC3 cells. Briefly: mTOR target engagement assay, immunofluorescent cell-based, p4E-BP1 Thr37/46 readout (mTORC1 activity). To be noted: Homo sapiens, read-out: p4E-BP1 Thr37/46 IC50. The essentials: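 PTEN-mutant PC3 prostate cells were treated with serially diluted compound in 5% FBS F12 medium (0.25% DMSO) for ninety minutes at 37° C, glyoxal-fixed, then immunostained overnight at 4° C for p4E-BP1 Thr37/46 with an Alexa Fluor 488 secondary. IC50 came from four-parameter fits of fluorescence, DMSO-only wells defining 100%.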

[3] abbreviates: PC-3, PC3 cells, compound treatment ninety minutes at 37° C.

As to `Cc1cnc(-c2ccc(-c3cnn4c(N)c(C5CC5)c([C@@H]5C[C@H]6CC[C@@H](C5)N6C(=O)CO)nc34)cn2)[nH]1` [Compound 6.27, 1-((1R,3s,5S)-3-(7-amino-6-cyclopropyl-3-(6-(5-methyl-1H-imidazol-2-yl)pyridin-3-yl)pyrazolo[1,5-a]pyrimidin-5-yl)-8-azabicyclo[3.2.1]octan-8-yl)-2-hydroxyethanone], the IC50 lay within 1 to 100 nM in assay [1] (PC-3, Table 6-1, PC3 cells) and 1 to 100 nM in assay [2] (PC-3, Table 6-1, PC3 cells).
In the case of `COc1ccc(-c2ccc(-c3cnn4c(N)c(S(C)(=O)=O)c([C@@H]5C[C@H]6CC[C@@H](C5)N6C(=O)CO)nc34)cn2)cc1F` [Compound 3.38, 1-((1R,3s,5S)-3-(7-amino-3-(6-(3-fluoro-4-methoxyphenyl)pyridin-3-yl)-6-(methylsulfonyl)pyrazolo[1,5-a]pyrimidin-5-yl)-8-azabicyclo[3.2.1]octan-8-yl)-2-hydroxyethanone], the IC50 in assay [1] (PC-3, Table 3-1, PC3 cells) lay in the range of 1 to 100 nM; in assay [2] (PC-3, Table 3-1, PC3 cells), 100 to 1000 nM.
As to `CS(=O)(=O)c1c([C@@H]2C[C@H]3CC[C@@H](C2)N3C(=O)C2(O)CC2)nc2c(-c3ccc(-c4ccccc4)nc3)cnn2c1N` [Compound 3.12, ((1R,3s,5S)-3-(7-amino-6-(methylsulfonyl)-3-(6-phenylpyridin-3-yl)pyrazolo[1,5-a]pyrimidin-5-yl)-8-azabicyclo[3.2.1]octan-8-yl)(1-hydroxycyclopropyl)methanone], the IC50 in assay [1] (PC-3, Table 3-1, PC3 cells) lay in the range of 100 to 1000 nM; in assay [2] (PC-3, Table 3-1, PC3 cells), 1000 to 10000 nM.
For `CS(=O)(=O)c1c([C@@H]2C[C@H]3CC[C@@H](C2)N3C(=O)c2nnc[nH]2)nc2c(-c3ccc(-c4ccc(C(F)(F)F)cc4F)nc3)cnn2c1N` [Compound 3.110, ((1R,3s,5S)-3-(7-amino-3-(6-(2-fluoro-4-(trifluoromethyl)phenyl)pyridin-3-yl)-6-(methylsulfonyl)pyrazolo[1,5-a]pyrimidin-5-yl)-8-azabicyclo[3.2.1]octan-8-yl)(4H-1,2,4-triazol-3-yl)methanone], the IC50 in assay [1] (PC-3, Table 3-1, PC3 cells) lay in the range of 100 to 1000 nM; in assay [2] (PC-3, Table 3-1, PC3 cells) it was 1000 to 10000 nM.
For the compound `CS(=O)(=O)c1c([C@@H]2C[C@H]3CC[C@@H](C2)N3C(=O)c2cccc(=O)[nH]2)nc2c(-c3ccc(-c4ccccc4)nc3)cnn2c1N` [Compound 3.140, 6-((1R,3s,5S)-3-(7-amino-6-(methylsulfonyl)-3-(6-phenylpyridin-3-yl)pyrazolo[1,5-a]pyrimidin-5-yl)-8-azabicyclo[3.2.1]octane-8-carbonyl)pyridin-2(1H)-one], the IC50 in assay [1] (PC-3, Table 3-1, PC3 cells) is 1 to 100 nM; in assay [2] (PC-3, Table 3-1, PC3 cells) it was 100 to 1000 nM.
In the case of `Cc1nnc(C(=O)N2[C@@H]3CC[C@H]2C[C@H](c2nc4c(-c5ccc(-c6ncc(C)s6)nc5)cnn4c(N)c2S(C)(=O)=O)C3)[nH]1` [Compound 3.184, ((1R,3s,5S)-3-(7-amino-6-(methylsulfonyl)-3-(6-(5-methylthiazol-2-yl)pyridin-3-yl)pyrazolo[1,5-a]pyrimidin-5-yl)-8-azabicyclo[3.2.1]octan-8-yl)(5-methyl-4H-1,2,4-triazol-3-yl)methanone], the IC50 lay in the range of 1 to 100 nM in assay [1] (PC-3, Table 3-1, PC3 cells) and 1 to 100 nM in assay [2] (PC-3, Table 3-1, PC3 cells).
For `CS(=O)(=O)c1c([C@@H]2C[C@H]3CC[C@@H](C2)N3C(=O)c2cn[nH]c2O)nc2c(-c3ccc(-c4ccccc4)nc3)cnn2c1N` [Compound 3.94, ((1R,3s,5S)-3-(7-amino-6-(methylsulfonyl)-3-(6-phenylpyridin-3-yl)pyrazolo[1,5-a]pyrimidin-5-yl)-8-azabicyclo[3.2.1]octan-8-yl)(5-hydroxy-1H-pyrazol-4-yl)methanone], the IC50 in assay [1] (PC-3, Table 3-1, PC3 cells) fell in the range of 100 to 1000 nM; in assay [2] (PC-3, Table 3-1, PC3 cells), 100 to 1000 nM.
Take `Cc1nnc(C(=O)N2[C@@H]3CC[C@H]2C[C@H](c2nc4c(-c5ccc(-c6ccccc6)nc5)cnn4c(N)c2C2CC2)C3)[nH]1` [Compound 4.2, ((1R,3a,5S)-3-(7-amino-6-cyclopropyl-3-(6-phenylpyridin-3-yl)pyrazolo[1,5-a]pyrimidin-5-yl)-8-azabicyclo[3.2.1]octan-8-yl)(5-methyl-4H-1,2,4-triazol-3-yl)methanone]: the IC50 in assay [1] (setting [3]) and in assay [2] (setting [3]) was 1 to 100 nM each time.
With `CC(=O)c1c([C@@H]2C[C@H]3CC[C@@H](C2)N3C(=O)c2nnc[nH]2)nc2c(-c3cnn(-c4ccccn4)c3)cnn2c1N` [Compound 1.1.161, 1-(5-((1R,3s,5S)-8-(4H-1,2,4-triazole-3-carbonyl)-8-azabicyclo[3.2.1]octan-3-yl)-7-amino-3-(1-(pyridin-2-yl)-1H-pyrazol-4-yl)pyrazolo[1,5-a]pyrimidin-6-yl)ethanone], the IC50 in assay [1] (setting [3]) and in assay [2] (setting [3]) was 100 to 1000 nM each time.
As for `CC(=O)c1c([C@@H]2C[C@H]3CC[C@@H](C2)N3C(=O)c2nc[nH]n2)nc2c(-c3ccc(C(C)O)cc3)cnn2c1N` (stereo partly drawn) [Compound 7.20, 1-(5-((1R,3s,5S)-8-(1H-1,2,4-triazole-3-carbonyl)-8-azabicyclo[3.2.1]octan-3-yl)-7-amino-3-(4-(1-hydroxyethyl)phenyl)pyrazolo[1,5-a]pyrimidin-6-yl)ethanone], the IC50 in assay [1] (setting [3]) and in assay [2] (setting [3]) was 1 to 100 nM each time.
`CC(=O)c1c([C@@H]2C[C@H]3CC[C@@H](C2)N3C(=O)c2cc[nH]n2)nc2c(-c3ccc(C(O)C(F)(F)F)nc3)cnn2c1N` (stereo partly drawn) [Compound 7.66, 1-(5-((1R,3s,5S)-8-(1H-pyrazole-3-carbonyl)-8-azabicyclo[3.2.1]octan-3-yl)-7-amino-3-(6-(2,2,2-trifluoro-1-hydroxyethyl)pyridin-3-yl)pyrazolo[1,5-a]pyrimidin-6-yl)ethanone]: the IC50 in assay [1] (PC-3, PC3 cells) was 1000 to 10000 nM; in assay [2] (PC-3, PC3 cells) it was 100 to 1000 nM.
As for `N#Cc1c([C@@H]2C[C@H]3CC[C@@H](C2)N3C(=O)CO)nc2c(-c3ccc(-c4ccccc4)nc3)cnn2c1N` [Compound 5.1, 7-amino-5-((1R,3s,5S)-8-(2-hydroxyacetyl)-8-azabicyclo[3.2.1]octan-3-yl)-3-(6-phenylpyridin-3-yl)pyrazolo[1,5-a]pyrimidine-6-carbonitrile], the IC50 in assay [1] (setting [3]) was 1 to 100 nM; in assay [2] (setting [3]) it was 100 to 1000 nM.
Consider `CC(=O)c1c([C@@H]2C[C@H]3CC[C@@H](C2)N3C(=O)c2cc(N)n[nH]2)nc2c(-c3ccc(-c4ccc(F)cc4)nc3)cnn2c1N` [Compound 1.1.156, 1-(7-amino-5-((1R,3s,5S)-8-(3-amino-1H-pyrazole-5-carbonyl)-8-azabicyclo[3.2.1]octan-3-yl)-3-(6-(4-fluorophenyl)pyridin-3-yl)pyrazolo[1,5-a]pyrimidin-6-yl)ethanone], for which the IC50 in assay [1] (setting [3]) and in assay [2] (setting [3]) was 1 to 100 nM in each case.
Take `Nc1c(C2(O)CC2)c([C@@H]2C[C@H]3CC[C@@H](C2)N3C(=O)c2nc[nH]n2)nc2c(-c3ccc(-c4ccccc4)nc3)cnn12` [Compound 8.39]: the IC50 in assay [1] (PC-3, PC3 cells) fell in the range of 1000 to 10000 nM; in assay [2] (PC-3, PC3 cells), 1000 to 10000 nM.
Regarding `Cn1cnc(-c2ccc(-c3cnn4c(N)cc([C@@H]5C[C@H]6CC[C@@H](C5)N6C(=O)c5nnc[nH]5)nc34)cn2)n1` [Compound 2.10, ((1R,3s,5S)-3-(7-amino-3-(6-(1-methyl-1H-1,2,4-triazol-3-yl)pyridin-3-yl)pyrazolo[1,5-a]pyrimidin-5-yl)-8-azabicyclo[3.2.1]octan-8-yl)(4H-1,2,4-triazol-3-yl)methanone], the IC50 in assay [1] (setting [3]) and in assay [2] (setting [3]) was greater than 10000 nM each time.
As for `Cc1cnc(-c2ccc(-c3cnn4c(N)c(S(C)(=O)=O)c([C@@H]5C[C@H]6CC[C@@H](C5)N6C(=O)C(O)C(F)(F)F)nc34)cn2)s1` (stereo partly drawn) [Compound 3.187, 1-((1R,3s,5S)-3-(7-amino-6-(methylsulfonyl)-3-(6-(5-methylthiazol-2-yl)pyridin-3-yl)pyrazolo[1,5-a]pyrimidin-5-yl)-8-azabicyclo[3.2.1]octan-8-yl)-3,3,3-trifluoro-2-hydroxypropan-1-one], the IC50 in assay [1] (PC-3, Table 3-1, PC3 cells) fell in the range of 1000 to 10000 nM; in assay [2] (PC-3, Table 3-1, PC3 cells), 1000 to 10000 nM.
On to `Cc1ccc(-c2ccc(-c3cnn4c(N)c(S(C)(=O)=O)c([C@@H]5C[C@H]6CC[C@@H](C5)N6C(=O)c5nnc[nH]5)nc34)cn2)cc1F` [Compound 3.45, ((1R,3s,5S)-3-(7-amino-3-(6-(3-fluoro-4-methylphenyl)pyridin-3-yl)-6-(methylsulfonyl)pyrazolo[1,5-a]pyrimidin-5-yl)-8-azabicyclo[3.2.1]octan-8-yl)(4H-1,2,4-triazol-3-yl)methanone], for which the IC50 lay in the range of 1 to 100 nM in assay [1] (PC-3, Table 3-1, PC3 cells) and 1 to 100 nM in assay [2] (PC-3, Table 3-1, PC3 cells).
For the compound `CS(=O)(=O)c1c([C@@H]2C[C@H]3CC[C@@H](C2)N3C(=O)c2nnc[nH]2)nc2c(-c3ccc(-c4ccccn4)nc3)cnn2c1N` [Compound 3.102, ((1R,3s,5S)-3-(3-(2,2′-bipyridin-5-yl)-7-amino-6-(methylsulfonyl)pyrazolo[1,5-a]pyrimidin-5-yl)-8-azabicyclo[3.2.1]octan-8-yl)(4H-1,2,4-triazol-3-yl)methanone], the IC50 in assay [1] (PC-3, Table 3-1, PC3 cells) is 1 to 100 nM; in assay [2] (PC-3, Table 3-1, PC3 cells), 1 to 100 nM.
Consider `CS(=O)(=O)c1c([C@@H]2C[C@H]3CC[C@@H](C2)N3C=O)nc2c(-c3ccc(-c4ccccc4)nc3)cnn2c1N` [Compound 3.19, (1R,3s,5S)-3-(7-amino-6-(methylsulfonyl)-3-(6-phenylpyridin-3-yl)pyrazolo[1,5-a]pyrimidin-5-yl)-8-azabicyclo[3.2.1]octane-8-carbaldehyde], for which the IC50 in assay [1] (PC-3, Table 3-1, PC3 cells) was in the range of 100 to 1000 nM; in assay [2] (PC-3, Table 3-1, PC3 cells) it was 100 to 1000 nM.
